From patent publication US9062043B2, “Fused tricyclic compounds as serine-threonine protein kinase and PARP modulators” (SENHWA BIOSCIENCES, INC., priority 2006, dated 2015)
Read-outs that look alike come from different tables or passages of the source.

How the values were obtained:
[1] = system: PC-3 human prostatic cancer cells; test: Cell proliferation assay, Alamar Blue, PC-3; type: cell-based
Method: (§1) A representative cell-proliferation assay protocol using Alamar Blue dye (stored at 4° C., use 20 ul per well) is described hereafter.
(§2) c. Plate 4,000-5,000 cells per well in 100 μl of medium and seed into a 96-well plate according to the following plate layout. Add cell culture medium only to wells B10 to B12. Wells B1 to B9 have cells but no compound added.
(§3) d. Add 100 μl of 2× drug dilution to each well in a concentration shown in the plate layout above. At the same time, add 100 μl of media into the control wells (wells B10 to B12). Total volume is 200 μl/well.
(§4) e. Incubate four (4) days at 37° C., 5% CO2 in a humidified incubator.
(§5) f. Add 20 μl Alamar Blue reagent to each well.
(§6) g. Incubate for four (4) hours at 37° C., 5% CO2 in a humidified incubator.
(§7) h. Record fluorescence at an excitation wavelength of 544 nm and emission wavelength of 590 nm using a microplate reader.
(§8) In the assays, cells are cultured with a test compound for approximately four days, the dye then is added to the cells and fluorescence of […] dye is detected after approximately four hours. Different types of cells can be utilized in the assays (e.g., HCT-116 human colorectal carcinoma cells, PC-3 human prostatic cancer cells and MiaPaca human pancreatic carcinoma cells). Anti-proliferative effects of representative compounds are provided hereafter.

Hs578T = test: Cell proliferation assay, Alamar Blue, Hs578T; type: cell-based; settings: Homo sapiens, Hs-578T
H1299 = test: Cell proliferation assay, Alamar Blue, H1299; type: cell-based; settings: Homo sapiens, NCI-H1299; Table 16
Method: as §2, §3, §4, §5, §6, §7, §8

[2] = system: MiaPaca human pancreatic carcinoma cells; test: Cell proliferation assay, Alamar Blue, MiaPaca; type: cell-based
Method: as §1, §2, §3, §4, §5, §6, §7, §8

[3] = system: HCT-116 human colorectal carcinoma cells; test: Cell proliferation assay, Alamar Blue, HCT-116; type: cell-based;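 note: cells exposed to compound for about 4 days, then Alamar Blue added and fluorescence read after about 4 h, medium-only wells as control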
Jurkat = test: Cell proliferation assay, Alamar Blue, Jurkat; type: cell-based; settings: Homo sapiens;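 note: cells exposed to compound for about 4 days at 37 °C, then Alamar Blue added and fluorescence read after about 4 h, controls given medium without drug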
BxPC3 = test: Cell proliferation assay, Alamar Blue, BxPC3; type: cell-based; settings: Homo sapiens, BXPC-3; Table 19b
Method: as §2, §3, §4, §5, §6, §7, §8

PanC1 = test: Cell proliferation assay, Alamar Blue, PanC1; type: cell-based; settings: Homo sapiens, PANC-1; Table 19b; read-out: IC50 PanC1
Method: as §1, §2, §3, §4, §5, §6, §7, §8

[4] = Pharmacokinetics in ICR mice after IV and PO dose; type: in vivo
HT29 = test: Cell proliferation assay, Alamar Blue, HT29; type: cell-based; settings: Homo sapiens, HT-29; Table 19b
Method: as §2, §3, §4, §5, §6, §7, §8

[5] = HCT-116, Table 16, first HCT-116 column
[6] = HCT-116, Table 16, second HCT-116 column

## Fc1cccc(Nc2nc3cc(-c4nnn[nH]4)ccc3c3sccc23)c1
[1]; Table 16, read-out: IC50 PC3
  IC50: 2.89 µM
Hs578T; Table 16
  IC50: 3.37 µM
H1299
  IC50: 3.05 µM
[2]; MIA PaCa-2, Table 16
  IC50: 9.55 µM

## c1ccc(Nc2nc3cc(-c4nnn[nH]4)ccc3c3sccc23)cc1
[1]; Table 16, read-out: IC50 PC3
  IC50: 20 µM
Hs578T; Table 16
  IC50: 21.8 µM
H1299
  IC50: 11.7 µM
[3]; [5]
  IC50: > 10 µM

## CNC(=O)c1cccc(Nc2nc3cc(-c4nnn[nH]4)ccc3c3sccc23)c1
[1]; Table 16, read-out: IC50 PC3
  IC50: 2.79 µM
Hs578T; Table 16
  IC50: 3.01 µM
H1299
  IC50: 4.01 µM
Jurkat; Table 16
  IC50: 4.22 µM
[3]; [6]
  IC50: > 10 µM
[2]; MIA PaCa-2, Table 16
  IC50: > 10 µM

## C#Cc1cccc(Nc2nc3cc(C(=O)O)ccc3c3cnc(NCC4CC4)nc23)c1 [drawing 1257]
BxPC3
  IC50: 0.82 µM
PanC1
  IC50: 1.3 µM

## CN(C)CCNc1nc2cc(C(=O)O)ccc2c2cnc(NC3CC3)nc12 [drawing 1293]
BxPC3
  IC50: 13 µM
PanC1
  IC50: > 50 µM

## O=C(O)c1ccc2c(c1)nc(Nc1ccccc1)c1ccsc12
[1]; Table 16, read-out: IC50 PC3
  IC50: 9.09 µM
Hs578T; Table 16
  IC50: 6.38 µM
H1299
  IC50: 4.39 µM
Jurkat; Table 16
  IC50: 6.12 µM
[3]; [5]
  IC50: > 10 µM
[3]; [6]
  IC50: > 10 µM
[2]; MIA PaCa-2, Table 16
  IC50: > 10 µM

## Cc1cccc(Nc2nc3cc(C(=O)O)ccc3c3cncnc23)c1
Jurkat; Table 18
  IC50: 3.45 µM
[3]; HCT-116, Table 18
  IC50: > 10 µM
[2]; MIA PaCa-2, Table 18
  IC50: 8.33 µM

## Fc1cccc(Nc2nc3cc(-c4nnn[nH]4)ccc3c3cnccc23)c1
[1]; Table 18, read-out: IC50 PC3
  IC50: > 50 µM

## Cc1cc(Nc2ncc3c(n2)c(Nc2ccc(F)c(Cl)c2)nc2cc(C(=O)O)ccc23)[nH]n1 [drawing 1286]
BxPC3
  IC50: > 50 µM
PanC1
  IC50: > 50 µM

## CC1CCCCN1CCCNc1ncc2c(n1)c(Nc1ccc(F)c(Cl)c1)nc1cc(C(=O)O)ccc12 (centres unmarked) [drawing 1280]
BxPC3
  IC50: 3.34 µM
PanC1
  IC50: 10.5 µM

## C#Cc1cccc(Nc2nc3cc(C(=O)O)ccc3c3cncnc23)c1 [drawing 1347]
[4]; PO, 24.5 mg/kg
  Kel: 0.0594 h⁻¹
[4]; mouse, plasma, IV, 3.4 mg/kg
  AUC(0-inf): 4900 ng·h/mL
  AUC(0-t): 4810 ng·h/mL
  Cmax: 4740 ng/mL
  Vd: 4.9 L/kg
[4]; mouse, plasma, PO, 24.5 mg/kg
  AUC(0-inf): 10900 ng·h/mL
  AUC(0-t): 9120 ng·h/mL
  Cmax: 1600 ng/mL
  Tmax: 30 min

## O=C(O)c1ccc2c(c1)nc(NCCc1cccc(F)c1)c1ccncc12 [drawing 1022]
[1]; Table 18, read-out: IC50 PC3
  IC50: 27 µM
Hs578T; Table 18
  IC50: 24.6 µM
[3]; HCT-116, Table 18
  IC50: > 10 µM
[2]; MIA PaCa-2, Table 18
  IC50: > 10 µM

## O=C(O)c1ccc2c(c1)nc(NC1CC1)c1nc(Nc3ccccc3)ncc12 [drawing 1269]
BxPC3
  IC50: 3.92 µM
PanC1
  IC50: 4.02 µM

## O=C(O)c1ccc2c(c1)nc(NC1CC1)c1nc(NC3CC3)ncc12 [drawing 1074]
Jurkat; Table 18
  IC50: 3.45 µM
[3]; HCT-116, Table 18
  IC50: > 10 µM
[2]; MIA PaCa-2, Table 18
  IC50: 2.83 µM

## Fc1cc(Nc2nc3cc(-c4nnn[nH]4)ccc3c3cnccc23)ccc1Cl
[1]; Table 18, read-out: IC50 PC3
  IC50: > 50 µM

## C#Cc1cccc(Nc2nc3cc(C(=O)O)ccc3c3cnc(NCC4CCCO4)nc23)c1 (centres unmarked) [drawing 1256]
BxPC3
  IC50: 1.2 µM
PanC1
  IC50: 6.66 µM

## O=C(O)c1ccc2c(c1)nc(NCCc1cccc(Cl)c1)c1ccncc12 [drawing 1219]
BxPC3
  IC50: 24.3 µM
PanC1
  IC50: 28.1 µM
HT29
  IC50: 34 µM

## O=C(O)c1ccc2c(c1)nc(NC1CC1)c1nc(SCc3ccccc3Cl)ncc12 [drawing 1072]
Jurkat; Table 18
  IC50: 29.3 µM
[2]; MIA PaCa-2, Table 18
  IC50: > 50 µM

## CNc1ncc2c(n1)c(Nc1cccc(Cl)c1)nc1cc(C(=O)O)ccc12
Jurkat; Table 18
  IC50: 1.09 µM
[3]; HCT-116, Table 18
  IC50: > 10 µM
[2]; MIA PaCa-2, Table 18
  IC50: 1.75 µM

## O=C(O)c1ccc2c(c1)nc(NC1CC1)c1nc(SCc3ccccc3Cl)ncc12 [drawing 1265]
BxPC3
  IC50: 45.3 µM
PanC1
  IC50: > 50 µM

## O=C(O)c1ccc2c(c1)nc(NCCCc1ccccc1)c1ccncc12 [drawing 1023]
[1]; Table 18, read-out: IC50 PC3
  IC50: 5.25 µM
Hs578T; Table 18
  IC50: 29.9 µM
[3]; HCT-116, Table 18
  IC50: > 10 µM
[2]; MIA PaCa-2, Table 18
  IC50: > 10 µM

## CC1CCCCN1CCCNc1ncc2c(n1)c(Nc1ccc(F)c(Cl)c1)nc1cc(C(=O)O)ccc12 (centres unmarked) [drawing 1087]
Jurkat; Table 18
  IC50: 2.86 µM
[2]; MIA PaCa-2, Table 18
  IC50: 3.16 µM

## CCCNc1ncc2c(n1)c(NC1CC1)nc1cc(C(=O)O)ccc12 [drawing 1103]
Jurkat; Table 18
  IC50: 7.49 µM
[3]; HCT-116, Table 18
  IC50: > 10 µM
[2]; MIA PaCa-2, Table 18
  IC50: 4.65 µM

## CCCNc1ncc2c(n1)c(NC1CC1)nc1cc(C(=O)O)ccc12 [drawing 1296]
BxPC3
  IC50: 5.58 µM
PanC1
  IC50: 1.33 µM

## O=C(O)c1ccc2c(c1)nc(NCCc1cccc(Cl)c1)c1ccncc12 [drawing 1021]
[1]; Table 18, read-out: IC50 PC3
  IC50: 46.6 µM
Hs578T; Table 18
  IC50: 25 µM
[3]; HCT-116, Table 18
  IC50: > 10 µM
[2]; MIA PaCa-2, Table 18
  IC50: > 10 µM

## O=C(O)c1ccc2c(c1)nc(NCc1ccccc1)c1nc(NC3CC3)ncc12 [drawing 1277]
BxPC3
  IC50: 22.3 µM
PanC1
  IC50: 19.1 µM

## COC(=O)c1ccc2c(c1)nc(NC1CC1)c1nc(SCc3ccccc3Cl)ncc12 [drawing 1262]
BxPC3
  IC50: 2.12 µM
PanC1
  IC50: 3.48 µM
